Here are results for 87 molecules from a melting point compilation (Tetko et al.; mined from patent text by program, amines drawn as free bases though some values may be those of a salt).

Molecules are shown by their SMILES. A value given as a limit tells only on which side of the number the result lay.

On to `CC(C)(C)NC(=O)CP(=O)(O)O`, for which the melting point (usually the temperature, or range, at which the solid turns liquid) was 163 to 165 °C.

In turn, `CN1CCN(c2cccc(Nc3nc4c(-c5ccc(S(C)(=O)=O)cc5)cccn4n3)c2)C(=O)C1` came in with a melting point of 234 to 236 °C.

The molecule `CC(C)C(=O)OC1C(n2ccc(=O)[nH]c2=O)OC(COC(=O)c2ccc(Cl)cc2)C1(C#C[Si](C)(C)C)OC(=O)C(C)C` (configuration not stated) had a melting point of 160 to 161 °C.

As to `CC(C)(C)OC(=O)N1CCN(Cc2ccc(NC(=O)Oc3ccccc3)c(C(F)(F)F)c2)CC1`, the melting point was 143 to 147 °C.

`CC(C)c1nn(-c2ccc([N+](=O)[O-])cn2)cc1CCCO` showed a melting point of 130 to 131 °C.

Molecule `O=c1[nH]c2cc(O)ccc2n1CCN1CCN(c2cccc(C(F)(F)F)c2)CC1` came in with a melting point of 275 °C.

Molecule `COc1cc(OC)nc(NC(=O)NS(=O)(=O)Nc2ccccc2C(O)C2CC2)n1` (configuration not stated) yielded a melting point of 66 to 69 °C.

Molecule `CC(=O)NCCSCC(=O)[C@H](Cc1ccccc1)NC(=O)[C@H](CC(C)C)NC(=O)OCc1ccccc1` yielded a melting point of 122 to 123 °C.

`CC(c1cc(Cl)ccc1N1CCCC1)C(C(N)=O)c1ccc(C(=O)O)cc1` (configuration not stated) registered a melting point of 202 to 204 °C.

`CC(=O)Nc1ccc(CNc2n[nH]c3ncnc(Nc4cccc(Cl)c4)c23)cc1` showed a melting point of over 260 °C.

For `O=C(O)c1ccccc1C(=O)N1CCN(c2cc3c(cc2F)c(=O)c(C(=O)O)c2sccn23)CC1`, the melting point lay in the range of 277 to 278 °C.

The molecule `Cc1nc(-c2ccc(C#N)cc2)cn1-c1ccc(C#N)cc1` had a melting point of 212 to 220 °C.

In turn, `O=C(O)CCC(=O)c1ccc(-c2ccc(F)cc2)cc1` came in with a melting point of 174 to 176 °C.

`COc1ccc(N2CCN(c3c(C)c(C)c4c(c3C)C(c3ccco3)C(C)(C)O4)CC2)cc1` (configuration not stated) registered a melting point of 110 to 111 °C.

Turning to `CCCCC(=O)Nc1ccc(Oc2ncc(Cl)cn2)c(C)c1`, the melting point fell in the range of 146 to 150 °C.

Turning to `Cc1nc(C#Cc2ccccc2)n(C)c1-c1nc(C2CC2)no1`, the melting point was 88 °C.

Consider `Oc1ccc(-c2ncc3ncc(-c4cccs4)cc3n2)cc1`, for which the melting point was in the range of 240 to 242 °C.

For the molecule `Cn1cc(CC(=O)O)c2cc(Br)ccc21`, the melting point lay in the range of 192 to 194 °C.

Take `COc1cc(OC)c2c(c1)N(C)C(c1cc(C)c(O)c(C)c1)N=C2` (configuration not stated): the melting point lay in the range of 188 to 189 °C.

`CC(C)(O)CN1c2cccnc2C(N)=CC1Cc1ccccc1` (configuration not stated) gave a melting point of 211 to 213 °C.

`COc1ccc(C=CC(=O)Nc2cnc3ccc(Cl)cc3c2-c2ccccc2Cl)cc1OC` registered a melting point of 208 to 209 °C.

`N#Cc1c(N2CCNCC2)c2cc(F)ccc2n(Cc2ccccc2)c1=O` showed a melting point of 162 °C.

For the molecule `CC(c1cc2cc(Cl)ccc2o1)N(O)C(N)=O` (configuration not stated), the melting point fell in the range of 174 to 175 °C.

`CCCCCC(C)N(C=C1C(=O)OC(C)(CNc2cc(C(C)(C)C)c(O)c(C(C)(C)C)c2)OC1=O)Cc1ccc(CC(C)(C)C)s1` (configuration not stated) showed a melting point of 184 to 185 °C.

Molecule `CC(C)n1c(=O)oc2cc([N+](=O)[O-])cc(F)c21` returned a melting point of 122 to 123 °C.

In the case of `CC(C)(C)OC(=O)NC1CCC2(CC1)CSC1=C(O2)c2ccccc2C(=O)C1=O` (configuration not stated), the melting point fell in the range of 224 to 225 °C.

In turn, `CCc1nc2c(cnn2CC)c(NC2CCOCC2)c1CNC(=O)c1cccc(C(=O)NCc2ccc(F)c(-c3cccc(CN(C)CCN(C)C)c3)c2)c1` returned a melting point of 126 to 129 °C.

For the molecule `C=C(F)C(=O)Oc1c(I)cc(C(F)(F)F)cc1I`, the melting point was in the range of 93 to 95 °C.

Molecule `COc1ccc(-n2nc(CCC(=O)NCC(=O)O)cc2-c2ccc(Cl)cc2)cc1` displayed a melting point of 186 to 188 °C.

Consider `N#Cc1cccc(CN2CCN(c3ccc(NC(=O)c4ccccc4OCc4ccc(C(F)(F)F)cc4)cc3)CC2)c1`, for which the melting point is 190 to 191 °C.

Molecule `CNC(=O)c1cccc(C)c1Nc1nc(Nc2ccc3c(c2)C(=O)NCCC3)ncc1Cl` displayed a melting point of 259 °C.

Consider `CC(=O)SCCC(=O)N1C(C(=O)O)CC(=O)N1c1ccccc1` (configuration not stated), for which the melting point lay within 144 to 146 °C.

Molecule `COc1ccc2c(c1)cc(C(=O)c1ccc(C)cc1)n2C` registered a melting point of 149 to 151 °C.

The molecule `Cc1c(-c2ccccc2)oc2c(C(=O)NCCCN3CCN(c4ccccc4OC(F)(F)F)CC3)cccc2c1=O` had a melting point of 103 to 112 °C.

Molecule `O=c1[nH]c2sccc2c(=O)n1CCN1CCN(c2ccccc2Cl)CC1` gave a melting point of 216 to 217 °C.

`Cc1nc(C(F)(F)F)ccc1C(=O)C1=C(O)C(C)(C)CCC1=O` registered a melting point of 75 to 77 °C.

Take `O=C(O)/C=C1\CCc2c(F)cc(F)cc21`: the melting point was 238 to 239 °C.

On to `CCC12CCC3=C(CCc4cc(OC)ccc43)C1CCC2O` (configuration not stated), for which the melting point lay in the range of 102 to 105 °C.

As to `CCN(Cc1cc(Br)ccc1N)c1ccc(C(N)=O)nn1`, the melting point fell in the range of 208 to 210 °C.

Regarding `COC(=O)ONC(=N)Nc1ccc(C(=O)O)cc1`, the melting point lay in the range of 174 to 175 °C.

Consider `CCn1c(C(C)N(C)S(=O)(=O)c2ccc(Cl)c(Cl)c2)cnc1Oc1ccc(Cl)cc1` (configuration not stated), for which the melting point lay in the range of 142 to 144 °C.

In the case of `COc1ccccc1SCC1NCCS1` (configuration not stated), the melting point is 111 to 112 °C.

In the case of `O=C(O)C=Cc1ccc(Cn2ccnc2)c(Cl)c1`, the melting point lay in the range of 227 to 229 °C.

`CCOc1cc2nc(NC)nc(-c3cccc(-c4cncc(SC)c4)c3)c2cc1OCC` yielded a melting point of 105 to 107 °C.

In turn, `O=C(O)c1cnc2occc2c1` came in with a melting point of 274 to 275 °C.

Turning to `O=Cc1cccc2ncc(-c3ccccc3)nc12`, the melting point came to 149 °C.

`CN1CCC(c2c[nH]c3ccc(OS(=O)(=O)c4ccc(I)cc4)cc23)CC1` gave a melting point of 174 to 176 °C.

Consider `CC(C)c1ccc2c(c1)C(=O)c1ccc(C(=O)O)cc1CC2`, for which the melting point fell in the range of 178 to 182 °C.

The molecule `COc1cc(CCC(=O)c2c(OC)cc(OC)c(CCC(C)C)c2OCC(=O)O)ccc1O` had a melting point of 87 to 88 °C.

Consider `O=P1(O)Oc2c(-c3ccccc3)cc(Cl)cc2-c2ccccc21`, for which the melting point stood at 260 °C.

Molecule `O=C(O)C1=Cc2cc(Br)cc(Br)c2OC1C(F)(F)F` (configuration not stated) had a melting point of 225 to 226 °C.

In the case of `OCc1cc(O)cc(Nc2c3ccccc3nc3ccccc23)c1`, the melting point was 201 to 202 °C.

Consider `CCCc1c(OCCCOc2ccc(O)cc2)ccc2c1OC(CCC(=O)O)(CCC(=O)O)CC2=O`, for which the melting point was 160 to 166 °C.

For the molecule `COCCCn1c(COc2ccccc2)nc2c(N)nc3ccccc3c21`, the melting point amounted to 152 °C.

For the molecule `CCOC(=O)c1nnc2ccc(NC(C)C)cc2c1O`, the melting point was 170 to 171 °C.

`CSC1CC(=O)N1CC(=O)CS(=O)(=O)c1ccccc1` (configuration not stated) had a melting point of 82 to 84 °C.

Molecule `Cc1nn(-c2ccc(C(F)(F)F)cn2)cc1CCCOc1ccccc1CC(=O)O` showed a melting point of 128 to 129 °C.

With `O=C(O)C1C=Nc2c(cc(F)cc2[N+](=O)[O-])C1=O` (configuration not stated), the melting point is 254 to 256 °C.

`Nc1ccccc1Nc1ccc(Nc2nccs2)cc1` yielded a melting point of 184 to 186 °C.

In turn, `Cc1cc(NC(=O)C2=C(O)c3ccccc3N(c3ccccc3)C2)no1` displayed a melting point of 148 to 150 °C.

With `CC1CCOC(CBr)(c2ccc(Oc3ccccc3)cc2)O1` (configuration not stated), the melting point was 96 to 106 °C.

The molecule `O=C(NC(Cc1ccccc1)C(=O)O)OCc1ccc(COc2ccc(F)cc2)cc1` (configuration not stated) came in with a melting point of 112 to 113 °C.

The molecule `O=C1OC(c2ccccc2)=CC1=Cc1cccs1` showed a melting point of 141 °C.

In the case of `CN(C)CCNc1ccc(NCCN(CCO)CCO)c2c1C(=O)c1c(O)ccc(O)c1C2=O`, the melting point lay in the range of 204 to 205 °C.

Molecule `CCc1noc(-c2cn(-c3c[nH]c4ccccc34)cn2)n1` gave a melting point of 198 to 199 °C.

Turning to `COc1cccc2c1C(=O)OC2c1ccccc1` (configuration not stated), the melting point was 135 to 138 °C.

With `CCCCCCC(=O)N[C@@H](C(=O)OCc1ccccc1)[C@@H](C)O`, the melting point fell in the range of 70 to 73 °C.

Turning to `CCCCCCCCCCCC1CC(=O)C(CCCCCC)C(=O)O1` (configuration not stated), the melting point was in the range of 112 to 114 °C.

For the molecule `O=C(CSc1ccc(Cl)cc1)c1ccccc1`, the melting point was in the range of 65 to 66 °C.

Molecule `CNC(=O)[C@H]1S[C@@H](n2cnc3c(N)nc(Cl)nc32)[C@H](O)[C@@H]1O` showed a melting point of 233 to 235 °C.

Regarding `COc1cc(NC(=O)c2cccc(CSc3nc(NC(C)=O)n[nH]3)c2)cc(OC)c1OC`, the melting point is 196 to 201 °C.

With `COc1cccc(OC)c1C(=O)Nc1nnc(C(C)(C)CSC)s1`, the melting point lay within 165 to 167 °C.

In turn, `CCCCCCCCCCNC(=O)c1ccccc1[N+](=O)[O-]` displayed a melting point of 55 to 57 °C.

For the molecule `Cc1cc2c(c(C3=NNC(=O)CC3C)c1)OCCN2` (configuration not stated), the melting point is 160 to 162 °C.

On to `COCOc1c(CCO)c(OC)c(OCOC)c(CCCCCc2c(OC)c(OCOC)c(CCO)c(OC)c2OCOC)c1OC`, for which the melting point was in the range of 68 to 70 °C.

In turn, `CNC(=O)Nc1cc(C(C)(C)C)c2c(c1)C(C)(C)CS2` showed a melting point of over 150 °C.

For the molecule `Nc1c(Cl)cc(C(O)CNCCCCCOCCc2cc3ccccc3o2)cc1Cl` (configuration not stated), the melting point lay within 49 to 52 °C.

The molecule `N#Cc1nc(F)c(F)c(N)c1Cl` came in with a melting point of 190 to 192 °C.

The molecule `CCCCS(=O)(=O)NCC1CCN(C(=O)OCc2ccccc2)CC1` came in with a melting point of 83 to 85 °C.

In turn, `CCCCCCCCCCCCn1nnc(C(C(=O)Nc2cc(C)c(O)c(C)c2C)c2ccccc2)n1` (single isomer, unassigned; (+)) showed a melting point of 105 °C.

In the case of `O=C(Nc1ccc(C(F)(F)F)cc1)N1CC(NC(=O)C(F)(F)F)C(c2ccc(Cl)cc2)=N1` (configuration not stated), the melting point fell in the range of 259 to 260 °C.

Turning to `COc1ccc(F)c(C=C2c3ccccc3CCc3ccccc32)c1`, the melting point was 111 °C.

In turn, `O=C(C=c1sc2n(c1=O)Cc1ccccc1N=2)NC1CCCCC1` came in with a melting point of 287 to 288 °C.

The molecule `CN1CCN(c2ccc(Nc3ncc4c(n3)S/C(=C/c3ccc(O)cc3)C(=O)N4)cc2)CC1` displayed a melting point of 312 to 314 °C.

`Cc1ccc(S(=O)(=O)OCC2CCc3sc(C(C)C)nc3C2)cc1` (configuration not stated) showed a melting point of 82 to 83 °C.

Molecule `Nc1ccccc1Nc1ccccn1` displayed a melting point of 124 to 125 °C.

For the molecule `CCCCCCCCCCCC#Cc1ccc(C=CC(=O)O)cc1`, the melting point is 156 to 157 °C.
